{"source": "patent US20170056336A1", "about": "“CO-TARGETING ANDROGEN RECEPTOR SPLICE VARIANTS AND MTOR SIGNALING PATHWAY FOR THE TREATMENT OF CASTRATION-RESISTANT PROSTATE CANCER” (British Columbia Cancer Agency Branch, priority 2015, published 2017)", "key": {"[1]": {"tested_on": "mTOR and AR pathways in LNCaP95 cells", "assay": "Western blot analysis of mTOR and AR pathways in LNCaP95 cells", "format": "cell-based, human", "conditions": "for expression of UBE2C / pS6 levels: enzalutamide 10 uM; for pS6 levels: regardless of androgen status; for BEZ-235-increased protein levels of FL-AR, AR-V7 and PSA: elevations caused by BEZ-235 15 nM, LNCaP95 and LNCaP cells", "experimental": "Cells were harvested and whole-cell lysate (10 to 15 ug) was subjected to SDS-PAGE. Antibodies used were: AR (1:1000; Santa Cruz), AR-V7 (1:400; Precision), p110α (1:500; BD Bioscience), p110β (1:1000; abcam), […] (1:1000; abcam), p110δ (1:1000; abcam), UBE2C (Boston Biochem; 1:1000), PTEN (1:1000), pS6 (1:2000), pAktThr308 (1:1000), pAktSer473 (1:2000), p4EBP1 (1:1000), total-Akt (1:1000), total-S6 (1:1000), total-4EBP1 (1:1000), pERK/MAPK (1:1000), total-ERK/MAPK (1:1000) from Cell Signaling technology (Danvers, Mass.). β-actin (1:10,000, Abcam) was used as a loading control.\nProtein levels of PSA were undetectable in LNCaP95 cells."}, "[2]": {"tested_on": "mTOR and AR pathways in parental LNCaP cells", "assay": "Western blot analysis of mTOR and AR pathways in parental LNCaP cells", "format": "cell-based, human", "conditions": "parental LNCaP cells, R1881 1 nM"}, "AR NTD": {"target": "T1, AR NTD (Homo sapiens, UniProt P10275)", "T1 sequence (P10275 1-558)": "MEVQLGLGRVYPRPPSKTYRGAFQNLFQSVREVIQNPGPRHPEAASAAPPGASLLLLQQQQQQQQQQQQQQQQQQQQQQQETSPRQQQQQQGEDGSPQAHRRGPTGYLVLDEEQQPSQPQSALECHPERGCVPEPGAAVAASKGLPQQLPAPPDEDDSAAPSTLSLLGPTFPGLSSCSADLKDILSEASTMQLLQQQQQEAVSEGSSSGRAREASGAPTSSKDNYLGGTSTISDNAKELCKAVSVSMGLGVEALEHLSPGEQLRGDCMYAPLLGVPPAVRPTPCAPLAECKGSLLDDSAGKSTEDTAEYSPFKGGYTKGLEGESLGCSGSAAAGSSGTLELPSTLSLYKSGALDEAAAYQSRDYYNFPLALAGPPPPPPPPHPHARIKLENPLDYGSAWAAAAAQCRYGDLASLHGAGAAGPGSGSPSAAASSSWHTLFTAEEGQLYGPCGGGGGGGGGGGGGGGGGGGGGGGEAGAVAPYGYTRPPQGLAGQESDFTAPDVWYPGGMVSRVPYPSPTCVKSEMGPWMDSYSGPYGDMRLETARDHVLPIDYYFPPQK", "assay": "AR NTD transactivation assay in LNCaP cells", "format": "cell-based", "conditions": "IL-6 50 ng/ml, 24 h", "experimental": "Transactivation assays of the AR NTD were performed in LNCaP and LNCaP95 cells cotransfected with p5xGal4UAS-TATA-luciferase and AR NTD-Gal4DBD (FIG. 2D). […] LNCaP95 cells were harvested 24 h after the treatment of indicated compounds.\nThe AR NTD is essential for full transcriptional activities (Quayle, S. N. et. al., PNAS 2007, 104, 1331-1336). In LNCaP cells, transactivation of the AR NTD can be induced with IL-6 or by stimulation of the PKA pathway with FSK. In LNCaP95 cells, there is high intrinsic activity of the AR NTD which cannot be further induced by stimulation of these pathways."}, "[3]": {"tested_on": "genes regulated by FL-AR and AR-V7 in LNCaP95 cells", "assay": "Gene expression analysis (quantitative real-time RT-PCR) in LNCaP95 cells", "format": "cell-based, human"}, "LNCaP95 cells": {"tested_on": "LNCaP95 cells", "assay": "Cell proliferation BrdU immunoassay", "format": "cell-based, human", "conditions": "R1881 0.1 nM, 48 h, serum-free, Compound A 25 uM, enzalutamide 10 uM, BEZ-235 15 nM, everolimus 10 nM"}, "LNCaP95 xenografts [4]": {"tested_on": "LNCaP95 xenografts", "assay": "Western blot analyses of protein lysates from xenografts", "format": "in vivo, mice"}, "LNCaP95 xenografts [5]": {"tested_on": "LNCaP95 xenografts", "assay": "Immunohistochemistry of harvested xenografts", "format": "in vivo, mice"}, "AR": {"target": "T2, AR (Homo sapiens, UniProt P10275, T878A)", "T2 sequence (P10275 1-920 T878A)": "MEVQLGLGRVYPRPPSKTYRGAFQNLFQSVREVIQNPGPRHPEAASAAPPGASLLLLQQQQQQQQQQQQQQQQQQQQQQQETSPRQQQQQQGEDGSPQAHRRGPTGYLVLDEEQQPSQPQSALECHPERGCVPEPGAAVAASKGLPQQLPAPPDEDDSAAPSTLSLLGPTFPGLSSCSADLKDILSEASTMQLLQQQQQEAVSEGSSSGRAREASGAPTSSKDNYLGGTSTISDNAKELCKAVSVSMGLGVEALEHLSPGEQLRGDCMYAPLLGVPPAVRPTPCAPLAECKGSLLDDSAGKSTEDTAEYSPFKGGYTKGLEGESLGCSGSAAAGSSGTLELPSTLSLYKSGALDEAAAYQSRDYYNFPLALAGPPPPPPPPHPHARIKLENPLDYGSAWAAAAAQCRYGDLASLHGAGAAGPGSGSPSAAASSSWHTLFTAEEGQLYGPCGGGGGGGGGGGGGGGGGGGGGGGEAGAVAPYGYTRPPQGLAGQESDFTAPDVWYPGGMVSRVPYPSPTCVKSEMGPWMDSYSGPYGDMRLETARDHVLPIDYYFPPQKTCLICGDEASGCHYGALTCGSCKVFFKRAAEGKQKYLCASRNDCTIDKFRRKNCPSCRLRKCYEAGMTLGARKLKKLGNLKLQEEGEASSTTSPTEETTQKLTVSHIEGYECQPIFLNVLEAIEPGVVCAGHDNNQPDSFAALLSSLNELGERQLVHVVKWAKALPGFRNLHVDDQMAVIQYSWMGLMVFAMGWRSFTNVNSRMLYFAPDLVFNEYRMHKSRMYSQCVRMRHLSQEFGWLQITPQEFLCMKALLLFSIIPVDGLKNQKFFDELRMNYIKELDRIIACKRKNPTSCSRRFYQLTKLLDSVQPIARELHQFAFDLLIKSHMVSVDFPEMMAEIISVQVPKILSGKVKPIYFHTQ", "assay": "PSA-, ARR3-, PB-luciferase AR reporter assay in LNCaP95 cells", "conditions": "LNCaP95 cells treated with androgen and BEZ-235 15 nM"}, "[6]": {"conditions": "LNCaP95 cells, Compound A 25 uM"}, "[7]": {"conditions": "absence of androgen, with BEZ-235"}, "[8]": {"conditions": "in response to androgen, Compound A 35 uM"}, "[9]": {"conditions": "harvested tumors, Compound A 100 mg/kg, BEZ-235 5 mg/kg"}}}
{"compound": "CNC(=O)c1ccc(N2C(=S)N(c3ccc(C#N)c(C(F)(F)F)c3)C(=O)C2(C)C)cc1F", "note": "[enzalutamide, 4-(3-(4-cyano-3-(trifluoromethyl)phenyl)-5,5-dimethyl-4-oxo-2-thioxoimidazolidin-1-yl)-2-fluoro-N-methylbenzamide]", "values": [{"measurement": "expression of UBE2C", "setting": "[1]; [6]", "result": "not"}, {"measurement": "pS6 levels", "setting": "[1]; [6]", "result": "decreased"}, {"measurement": "BEZ-235-increased protein levels of FL-AR, AR-V7 and PSA", "setting": "[1]", "result": "at least in part attenuated"}, {"measurement": "androgen-induced levels of PSA", "setting": "[2]", "result": "blocking"}]}
{"compound": "CC(C)(c1ccc(OC[C@H](O)CO)cc1)c1ccc(OC[C@H](O)CCl)cc1", "note": "[Compound A]", "values": [{"measurement": "expression of UBE2C", "setting": "[1]; [6]", "result": "markedly reduced"}, {"measurement": "pS6 levels", "setting": "[1]; [6]", "result": "reduced"}, {"measurement": "levels of FKBP5", "setting": "[1]; LNCaP95 cells, presence of androgen (R1881 1 nM), Compound A 25 uM", "result": "no effect"}, {"measurement": "BEZ-235-increased protein levels of FL-AR, AR-V7 and PSA", "setting": "[1]", "result": "at least in part attenuated"}, {"measurement": "androgen-induced FKBP5", "setting": "[2]", "result": "poor inhibitor"}, {"measurement": "androgen-induced levels of PSA", "setting": "[2]", "result": "comparable to enzalutamide"}, {"measurement": "AR-NTD transactivation induced by IL-6", "setting": "AR NTD", "result": "significantly inhibited"}, {"measurement": "transcript levels of AR-V7 target genes (UBE2C, CDC20, Akt1)", "setting": "[3]; absence of androgen", "result": "consistently reduced"}, {"measurement": "BEZ-235-induced increase in transcript levels of AR-V7", "setting": "[3]; [7]", "result": "blocked"}, {"measurement": "BEZ-235-induced levels of PSA transcript", "setting": "[3]; [7]", "result": "blocked"}, {"measurement": "expression of FKBP5", "setting": "[3]; [8]", "result": "inhibited"}, {"measurement": "expression of KLK3", "setting": "[3]; [8]", "result": "inhibited"}, {"measurement": "expression of TMPRSS2", "setting": "[3]; [8]", "result": "inhibited"}, {"measurement": "UBE2C levels", "setting": "[3]; monotherapy, regardless of androgen", "result": "attenuated"}, {"measurement": "proliferation (BrdU incorporation)", "setting": "LNCaP95 cells", "result": "inhibited"}, {"measurement": "levels of p4EBP1", "setting": "LNCaP95 xenografts [4]; harvested tumors, normalized to total 4EBP1", "result": "no significant change"}, {"measurement": "levels of pAkt", "setting": "LNCaP95 xenografts [4]; harvested tumors, normalized to total Akt", "result": "no significant change"}, {"measurement": "protein levels of UBE2C", "setting": "LNCaP95 xenografts [4]; [9]", "result": "reduced"}, {"measurement": "protein levels of pS6", "setting": "LNCaP95 xenografts [4]; [9]", "result": "reduced"}, {"measurement": "protein levels of FKBP5", "setting": "LNCaP95 xenografts [4]; in vivo, monotherapies", "result": "reduced"}, {"measurement": "apoptosis (TUNEL staining)", "setting": "LNCaP95 xenografts [5]", "result": "increased"}, {"measurement": "proliferation (Ki67 staining)", "setting": "LNCaP95 xenografts [5]", "result": "significantly decreased"}, {"measurement": "UBE2C staining", "setting": "LNCaP95 xenografts [5]; immunohistochemistry", "result": "reduced"}, {"measurement": "pS6 staining", "setting": "LNCaP95 xenografts [5]; immunohistochemistry", "result": "reduced"}, {"measurement": "BEZ-235-increased PSA-, ARR3- and PB-luciferase activities", "setting": "AR", "result": "blocked"}]}
{"compound": "CO[C@H]1C[C@@H]2CC[C@@H](C)[C@@](O)(O2)C(=O)C(=O)N2CCCC[C@H]2C(=O)O[C@H]([C@H](C)C[C@@H]2CC[C@@H](OCCO)[C@H](OC)C2)CC(=O)[C@H](C)/C=C(\\C)[C@@H](O)[C@@H](OC)C(=O)[C@H](C)C[C@H](C)/C=C/C=C/C=C/1C", "note": "[everolimus]", "values": [{"measurement": "pAkt", "setting": "[1]; LNCaP95 cells, BEZ-235 15 nM, everolimus", "result": "without decreasing"}, {"measurement": "levels of UBE2C", "setting": "[1]; LNCaP95 cells, absence of androgen, everolimus", "result": "reduced"}, {"measurement": "protein levels of FL-AR", "setting": "[1]; LNCaP95 cells, titration experiments", "result": "increased"}, {"measurement": "pS6 ribosomal protein", "setting": "[1]; LNCaP95 cells, titration, BEZ-235 15 nM, everolimus 10 nM", "result": "reduced"}, {"measurement": "proliferation (BrdU incorporation)", "setting": "LNCaP95 cells", "result": "inhibited"}]}
